For series [1], the target named is yeast α-glucosidase (Saccharomyces cerevisiae, UniProt P53341). The series is described as follows: biochemical. The format is biochemical.
Series [2] deals with α-glucosidase. Further details: method as in doi:10.1007/s00044-020-02603-7. Particulars: template compounds A, read-out: IC50 for Compounds A (Fig. 3); cited from earlier work.
The target of series [3] is T1, α-amylase (pancreatic form) (Homo sapiens, UniProt P04746).
T1 sequence (P04746 16-511): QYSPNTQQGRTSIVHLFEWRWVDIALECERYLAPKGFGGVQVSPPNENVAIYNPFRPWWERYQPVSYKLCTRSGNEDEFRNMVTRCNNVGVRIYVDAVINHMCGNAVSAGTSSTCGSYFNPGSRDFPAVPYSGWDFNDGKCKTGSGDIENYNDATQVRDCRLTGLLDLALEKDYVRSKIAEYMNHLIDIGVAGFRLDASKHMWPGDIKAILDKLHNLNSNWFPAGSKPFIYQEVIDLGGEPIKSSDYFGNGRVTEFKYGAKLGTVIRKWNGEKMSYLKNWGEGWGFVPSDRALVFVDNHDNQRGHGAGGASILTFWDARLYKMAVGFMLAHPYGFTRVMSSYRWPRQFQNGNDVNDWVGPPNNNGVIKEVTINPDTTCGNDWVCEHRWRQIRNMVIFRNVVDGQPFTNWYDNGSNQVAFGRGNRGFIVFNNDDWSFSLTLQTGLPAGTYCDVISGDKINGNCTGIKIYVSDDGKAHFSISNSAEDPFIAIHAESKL
Briefly: α-Amylase inhibition assay. The format is biochemical. Particulars: read-out: IC50 against α-amylase. Here is the method:
Inhibitory activity of the most poten new α-glucosidase inhibitors 5k, 5j, and 5f was evaluated against α-amylase (pancreatic form)[15].
(Supplementary Information S1).

The target of series [4] is α-glucosidase (Saccharomyces cerevisiae, UniProt P53341). Briefly: Kinetics of α-glucosidase inhibition (Lineweaver–Burk plot and secondary plot). The format is biochemical, yeast. From the text: As the result, with increasing concentration of compound 5k, Vmax values remained constant while Km values increased.
In vitro assays (inhibition effects and kinetics) of the new compounds 5a–n performed according to pervious reported work[15] (Supplementary Information S1).

The mark [5] stands for this setting: read-out: IC50 against α-glucosidase.

Broadly, the IC50 is the concentration that inhibits the measured activity by half. Usually melting point stands for the temperature of the solid-liquid transition. The term Ki denotes a dissociation constant, usually derived from enzyme kinetics or from competition with a known ligand.

Entries after “also recorded” stand apart in the source; their conditions may differ. Like-named read-outs stand apart in the source and are kept apart here.

Chain of yeast α-glucosidase (P53341 whole entry): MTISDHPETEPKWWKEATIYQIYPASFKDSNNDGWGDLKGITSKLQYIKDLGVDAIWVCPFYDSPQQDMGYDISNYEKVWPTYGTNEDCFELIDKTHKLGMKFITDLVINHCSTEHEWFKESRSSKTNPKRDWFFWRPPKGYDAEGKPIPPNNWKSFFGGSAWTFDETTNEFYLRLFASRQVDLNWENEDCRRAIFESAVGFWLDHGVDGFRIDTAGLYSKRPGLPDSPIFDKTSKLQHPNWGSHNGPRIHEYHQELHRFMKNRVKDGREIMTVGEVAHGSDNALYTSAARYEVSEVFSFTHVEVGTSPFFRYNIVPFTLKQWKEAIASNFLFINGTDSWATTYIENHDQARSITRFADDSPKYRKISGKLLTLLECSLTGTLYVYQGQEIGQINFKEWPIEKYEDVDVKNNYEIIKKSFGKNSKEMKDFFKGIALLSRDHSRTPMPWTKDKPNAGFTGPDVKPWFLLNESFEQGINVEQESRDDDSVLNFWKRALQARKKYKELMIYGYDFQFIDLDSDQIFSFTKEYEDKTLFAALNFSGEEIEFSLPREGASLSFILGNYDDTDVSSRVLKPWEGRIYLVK
Chain of α-glucosidase (Saccharomyces cerevisiae, UniProt P53341) (P53341 whole entry): as above

`COc1ccc(NC(=O)Cn2cc(CNC(=O)c3cc4ccccc4[nH]3)nn2)cc1` [Compound 5g, N-((1-(2-((4-methoxyphenyl)amino)-2-oxoethyl)-1H-1,2,3-triazol-4-yl)methyl)-1H-indole-2-carboxamide] showed a melting point of 209 to 211 °C. Moreover, inhibition in series [1] was half-maximal at 83 ± 0.7 µM (IC50).

Turning to `O=C(Cn1cc(CNC(=O)c2c3ccccc3nc3ccccc23)nn1)Nc1ccc(Br)cc1` [Compounds A, R = 4-Br], the IC50 in series [2] was 269 ± 2.8 µM.

In the case of `O=C(Cn1cc(CNC(=O)c2cc3ccccc3[nH]2)nn1)Nc1ccccc1` [Compound 5a, N-((1-(2-oxo-2-(phenylamino)ethyl)-1H-1,2,3-triazol-4-yl)methyl)-1H-indole-2-carboxamide], the melting point lay within 216 to 218 °C. Besides, the IC50 in series [1] came out at 62.9 ± 0.3 µM.

The compound `O=C(Cn1cc(CNC(=O)c2cc3ccccc3[nH]2)nn1)Nc1ccc(Cl)cc1Cl` [Compound 5j, N-((1-(2-((2,4-dichlorophenyl)amino)-2-oxoethyl)-1H-1,2,3-triazol-4-yl)methyl)-1H-indole-2-carboxamide] came in with a melting point of 233 to 235 °C. Moreover, the IC50 in series [3] was above 150 µM. In series [1] (setting [5]), the IC50 turned out to be 39.6 ± 1.4 µM.

For the compound `Cc1cccc(NC(=O)Cn2cc(CNC(=O)c3cc4ccccc4[nH]3)nn2)c1C` [Compound 5d, N-((1-(2-((2,3-dimethylphenyl)amino)-2-oxoethyl)-1H-1,2,3-triazol-4-yl)methyl)-1H-indole-2-carboxamide], the melting point was 205 to 207 °C. The IC50 in series [1] (setting [5]) amounted to 66 ± 1.8 µM.

Turning to `Cc1ccc(NC(=O)Cn2cc(CNC(=O)c3cc4ccccc4[nH]3)nn2)cc1` [Compound 5c, N-((1-(2-oxo-2-(p-tolylamino)ethyl)-1H-1,2,3-triazol-4-yl)methyl)-1H-indole-2-carboxamide], the melting point is 231 to 233 °C. The compound further showed an IC50 in series [1] of 42.6 ± 0.9 µM.

In turn, `Cc1cc([N+](=O)[O-])ccc1NC(=O)Cn1cc(CNC(=O)c2cc3ccccc3[nH]2)nn1` [Compound 5n, N-((1-(2-((2-methyl-4-nitrophenyl)amino)-2-oxoethyl)-1H-1,2,3-triazol-4-yl)methyl)-1H-indole-2-carboxamide] showed a melting point of 229 to 231 °C. Further, the IC50 in series [1] (setting [5]) stood at 43.5 ± 0.7 µM.

In turn, `O=C(Cn1cc(CNC(=O)c2cc3ccccc3[nH]2)nn1)Nc1cccc([N+](=O)[O-])c1` [Compound 5l, N-((1-(2-((3-nitrophenyl)amino)-2-oxoethyl)-1H-1,2,3-triazol-4-yl)methyl)-1H-indole-2-carboxamide] displayed a melting point of 254 to 256 °C. The IC50 in series [1] (setting [5]) came to 110.3 ± 0.6 µM.

`CCc1ccc(NC(=O)Cn2cc(CNC(=O)c3cc4ccccc4[nH]3)nn2)cc1` [Compound 5f, N-((1-(2-((4-ethylphenyl)amino)-2-oxoethyl)-1H-1,2,3-triazol-4-yl)methyl)-1H-indole-2-carboxamide] registered a melting point of 203 to 205 °C. The IC50 in series [3] was above 150 µM. The concentration for half-maximal inhibition (IC50) in series [1] (setting [5]) stood at 40.2 ± 1.6 µM.

Regarding `O=C(Cn1cc(CNC(=O)c2c3ccccc3nc3ccccc23)nn1)Nc1ccccc1` [Compounds A, R = H], in series [2], the IC50 is 171 ± 2.1 µM.

`O=C(Cn1cc(CNC(=O)c2cc3ccccc3[nH]2)nn1)Nc1cccc(Cl)c1` [Compound 5h, N-((1-(2-((3-chlorophenyl)amino)-2-oxoethyl)-1H-1,2,3-triazol-4-yl)methyl)-1H-indole-2-carboxamide] registered a melting point of 211 to 213 °C.

`Cc1cccc(C)c1NC(=O)Cn1cc(CNC(=O)c2cc3ccccc3[nH]2)nn1` [Compound 5e, N-((1-(2-((2,6-dimethylphenyl)amino)-2-oxoethyl)-1H-1,2,3-triazol-4-yl)methyl)-1H-indole-2-carboxamide]: the melting point was in the range of 208 to 210 °C. Besides, the IC50 in series [1] (setting [5]) worked out at 111 ± 1.6 µM.

Consider `O=C(Cn1cc(CNC(=O)c2cc3ccccc3[nH]2)nn1)Nc1ccc([N+](=O)[O-])cc1` [Compound 5m, N-((1-(2-((4-nitrophenyl)amino)-2-oxoethyl)-1H-1,2,3-triazol-4-yl)methyl)-1H-indole-2-carboxamide], for which the melting point was 259 to 261 °C. For the same compound, the IC50 in series [1] (setting [5]) was 78.8 ± 0.3 µM.

Take `O=C(Cn1cc(CNC(=O)c2c3ccccc3nc3ccccc23)nn1)Nc1ccc([N+](=O)[O-])cc1` [Compounds A, R = 4-NO2]: the IC50 in series [2] is 152 ± 1.7 µM.

`O=C(Cn1cc(CNC(=O)c2c3ccccc3nc3ccccc23)nn1)Nc1ccc(Cl)cc1` [Compounds A, R = 4-Cl]: the IC50 in series [2] is 309 ± 3.4 µM.

On to `O=C(Cn1cc(CNC(=O)c2cc3ccccc3[nH]2)nn1)Nc1ccc(Br)cc1` [Compound 5k, N-((1-(2-((4-bromophenyl)amino)-2-oxoethyl)-1H-1,2,3-triazol-4-yl)methyl)-1H-indole-2-carboxamide], for which the melting point lay within 236 to 238 °C. In addition, in series [3], the IC50 is above 150 µM. Further, in series [1], the IC50 turned out to be 26.8 ± 0.5 µM. In addition, the “improvement in the inhibition effect in comparison to standard inhibitor acarbose” value in series [1] (ratio of α-glucosidase IC50 values, acarbose vs compound) is around 28 fold. For the same compound, the type of inhibition result in series [4] (Lineweaver–Burk plot, Vmax constant, Km increased) is “competitive type of inhibition; also recorded: competitive inhibitor”. This compound also yielded a Ki in series [4] (secondary plot of Lineweaver–Burk plots) of 26 µM.

For `Cc1ccc(NC(=O)Cn2cc(CNC(=O)c3c4ccccc4nc4ccccc34)nn2)cc1` [Compounds A, R = 4-Me], the IC50 in series [2] is 519 ± 6.7 µM.

Compound `Cc1cccc(NC(=O)Cn2cc(CNC(=O)c3cc4ccccc4[nH]3)nn2)c1` [Compound 5b, N-((1-(2-oxo-2-(m-tolylamino)ethyl)-1H-1,2,3-triazol-4-yl)methyl)-1H-indole-2-carboxamide] gave a melting point of 224 to 226 °C. This compound displayed an IC50 in series [1] of 63.6 ± 1.1 µM.

The compound `O=C(Cn1cc(CNC(=O)c2cc3ccccc3[nH]2)nn1)Nc1ccc(Cl)cc1` [Compound 5i, N-((1-(2-((4-chlorophenyl)amino)-2-oxoethyl)-1H-1,2,3-triazol-4-yl)methyl)-1H-indole-2-carboxamide] returned a melting point of 225 to 227 °C. The compound further yielded an IC50 in series [1] of 83 ± 1.6 µM.

(Values after publication PMC11233587, “Design, synthesis, in vitro, and in silico anti-α-glucosidase assays of N-phenylacetamide-1,2,3-triazole-indole-2-carboxamide derivatives as new anti-diabetic agents” (Scientific Reports, 2024).)
